From the kinase profiling compilation of Christmann-Franck et al. (2016)

How the values were obtained:
Experiment in all cases: KINOMEscan competition binding
Conditions in all cases: compound 10.0 µM
ADCK3 (human) = ADCK3 (human) (UniProt Q8NI60)
AURKC (human) = AURKC (human) (UniProt Q9UQB9)
BMPR1B (human) = BMPR1B (human) (UniProt O00238)
BRSK1 (human) = BRSK1 (human) (UniProt Q8TDC3)
CAMKK1 (human) = CAMKK1 (human) (UniProt Q8N5S9)
CDC42BPB (human) = CDC42BPB (human) (UniProt Q9Y5S2)
CDK17 (human) = CDK17 (human) (UniProt Q00537)
CDK18 (human) = CDK18 (human) (UniProt Q07002)
CDK4 CCND1 (human) = CDK4 CCND1 (human) (UniProt P11802+P24385)
CSK (human) = CSK (human) (UniProt P41240)
CaMK1 (human) = CaMK1 (human) (UniProt Q14012)
FGFR4 (human) = FGFR4 (human) (UniProt P22455)
GRK4 (human) = GRK4 (human) (UniProt P32298)
ICK (human) = ICK (human) (UniProt Q9UPZ9)
LTK (human) = LTK (human) (UniProt P29376)
MAP3K2 (human) = MAP3K2 (human) (UniProt Q9Y2U5)
MAP4K1 (human) = MAP4K1 (human) (UniProt Q92918)
MAPK10 (human) = MAPK10 (human) (UniProt P53779)
MAPK15 (human) = MAPK15 (human) (UniProt Q8TD08)
MAPK3 (human) = MAPK3 (human) (UniProt P27361)
MARK1 (human) = MARK1 (human) (UniProt Q9P0L2)
[1] = system: MET (human), P08581 [Y1235D]
MYO3A (human) = MYO3A (human) (UniProt Q8NEV4)
NEK11 (human) = NEK11 (human) (UniProt Q8NG66)
NEK7 (human) = NEK7 (human) (UniProt Q8TDX7)
NTRK1 (human) = NTRK1 (human) (UniProt P04629)
PAK6 (human) = PAK6 (human) (UniProt Q9NQU5)
PKN3 (M.tuberculosis) = PKN3 (M.tuberculosis) (UniProt Q6P5Z2)
PRKD2 (human) = PRKD2 (human) (UniProt Q9BZL6)
PRKG1 (human) = PRKG1 (human) (UniProt Q13976)
[2] = system: RET (human), P07949 [M918T]
ROCK1 (human) = ROCK1 (human) (UniProt Q13464)
RPS6KA1 KD1 (human) = RPS6KA1 KD1 (human) (UniProt Q15418)
RPS6KA5 KD1 (human) = RPS6KA5 KD1 (human) (UniProt O75582)
SRPK1 (human) = SRPK1 (human) (UniProt Q96SB4)
TBK1 (human) = TBK1 (human) (UniProt Q9UHD2)
TLK1 (human) = TLK1 (human) (UniProt Q9UKI8)
TNK1 (human) = TNK1 (human) (UniProt Q13470)
EPHB4 (human) = EPHB4 (human) (UniProt P54760)
TEK (human) = TEK (human) (UniProt Q02763)

CDK18 (human), sequence (Q07002 whole entry, looked up): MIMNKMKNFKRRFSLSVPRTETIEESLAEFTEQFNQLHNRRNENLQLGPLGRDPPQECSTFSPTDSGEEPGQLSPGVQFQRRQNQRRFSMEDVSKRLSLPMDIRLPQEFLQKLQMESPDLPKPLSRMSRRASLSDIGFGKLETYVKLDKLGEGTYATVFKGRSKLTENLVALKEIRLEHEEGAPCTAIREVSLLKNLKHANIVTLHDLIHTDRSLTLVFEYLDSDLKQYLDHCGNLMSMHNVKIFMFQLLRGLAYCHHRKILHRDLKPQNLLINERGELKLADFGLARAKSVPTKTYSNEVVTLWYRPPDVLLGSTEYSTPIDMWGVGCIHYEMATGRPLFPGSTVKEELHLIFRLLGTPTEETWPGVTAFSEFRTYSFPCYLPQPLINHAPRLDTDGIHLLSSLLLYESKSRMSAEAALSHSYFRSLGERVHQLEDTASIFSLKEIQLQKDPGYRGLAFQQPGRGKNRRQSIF
TBK1 (human), sequence (Q9UHD2 whole entry, looked up): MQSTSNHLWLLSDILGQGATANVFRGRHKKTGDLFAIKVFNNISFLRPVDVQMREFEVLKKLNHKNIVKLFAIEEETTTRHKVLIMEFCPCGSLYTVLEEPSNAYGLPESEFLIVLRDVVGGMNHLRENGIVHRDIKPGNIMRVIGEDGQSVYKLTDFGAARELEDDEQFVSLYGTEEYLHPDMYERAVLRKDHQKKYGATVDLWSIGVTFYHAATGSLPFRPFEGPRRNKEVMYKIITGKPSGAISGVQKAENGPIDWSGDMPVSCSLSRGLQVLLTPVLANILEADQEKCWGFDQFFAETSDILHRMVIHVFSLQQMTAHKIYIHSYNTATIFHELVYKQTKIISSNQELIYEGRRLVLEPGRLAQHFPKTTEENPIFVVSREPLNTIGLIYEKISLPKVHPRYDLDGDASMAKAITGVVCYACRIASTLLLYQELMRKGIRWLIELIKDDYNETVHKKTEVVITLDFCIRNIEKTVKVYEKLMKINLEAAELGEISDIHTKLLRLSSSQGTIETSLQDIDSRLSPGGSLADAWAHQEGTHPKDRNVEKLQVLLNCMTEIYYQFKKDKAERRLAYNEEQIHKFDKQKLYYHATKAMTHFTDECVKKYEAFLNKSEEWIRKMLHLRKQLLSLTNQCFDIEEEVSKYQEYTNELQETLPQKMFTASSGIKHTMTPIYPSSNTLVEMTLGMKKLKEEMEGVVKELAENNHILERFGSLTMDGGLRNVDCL
NEK7 (human), sequence (Q8TDX7 whole entry, looked up): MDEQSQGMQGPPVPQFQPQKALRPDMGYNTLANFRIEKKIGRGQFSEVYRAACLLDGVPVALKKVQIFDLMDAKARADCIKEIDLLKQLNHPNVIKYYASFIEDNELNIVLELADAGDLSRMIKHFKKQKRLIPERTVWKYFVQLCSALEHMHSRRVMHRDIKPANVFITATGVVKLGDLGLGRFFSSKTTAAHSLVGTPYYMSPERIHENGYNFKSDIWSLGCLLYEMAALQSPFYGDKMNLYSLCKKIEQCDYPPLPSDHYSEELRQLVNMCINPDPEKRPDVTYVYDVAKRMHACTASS
ADCK3 (human), sequence (Q8NI60 whole entry, looked up): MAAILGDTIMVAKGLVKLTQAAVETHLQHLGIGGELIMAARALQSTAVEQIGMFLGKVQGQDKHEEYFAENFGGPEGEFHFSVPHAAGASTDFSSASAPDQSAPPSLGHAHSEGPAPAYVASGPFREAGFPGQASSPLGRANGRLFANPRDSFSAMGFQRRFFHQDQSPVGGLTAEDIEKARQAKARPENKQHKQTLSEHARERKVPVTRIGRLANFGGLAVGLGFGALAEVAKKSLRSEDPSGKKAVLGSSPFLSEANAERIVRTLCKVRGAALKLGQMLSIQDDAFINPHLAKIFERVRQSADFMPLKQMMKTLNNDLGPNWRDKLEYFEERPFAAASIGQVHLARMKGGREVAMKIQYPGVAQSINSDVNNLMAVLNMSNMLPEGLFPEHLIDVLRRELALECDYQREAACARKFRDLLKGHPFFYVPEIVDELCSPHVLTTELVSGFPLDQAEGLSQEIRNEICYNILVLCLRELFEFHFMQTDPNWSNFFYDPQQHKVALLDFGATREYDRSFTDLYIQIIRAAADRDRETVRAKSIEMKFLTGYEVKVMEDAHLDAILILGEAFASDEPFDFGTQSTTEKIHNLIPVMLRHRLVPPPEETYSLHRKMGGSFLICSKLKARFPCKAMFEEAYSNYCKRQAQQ
BMPR1B (human), sequence (O00238 whole entry, looked up): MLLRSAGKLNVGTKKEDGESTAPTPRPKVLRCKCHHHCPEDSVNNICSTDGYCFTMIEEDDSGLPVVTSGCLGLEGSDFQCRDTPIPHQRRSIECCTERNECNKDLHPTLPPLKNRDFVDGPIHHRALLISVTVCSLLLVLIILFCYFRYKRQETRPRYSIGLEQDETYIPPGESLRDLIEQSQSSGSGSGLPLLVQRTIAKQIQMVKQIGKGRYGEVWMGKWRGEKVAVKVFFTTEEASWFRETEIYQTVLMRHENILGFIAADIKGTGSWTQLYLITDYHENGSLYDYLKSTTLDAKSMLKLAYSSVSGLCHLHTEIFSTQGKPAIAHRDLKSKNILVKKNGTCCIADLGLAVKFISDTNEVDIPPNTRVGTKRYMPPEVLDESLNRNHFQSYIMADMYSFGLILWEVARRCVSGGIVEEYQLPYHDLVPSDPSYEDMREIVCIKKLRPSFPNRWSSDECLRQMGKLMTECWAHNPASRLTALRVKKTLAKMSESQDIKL
MARK1 (human), sequence (Q9P0L2 whole entry, looked up): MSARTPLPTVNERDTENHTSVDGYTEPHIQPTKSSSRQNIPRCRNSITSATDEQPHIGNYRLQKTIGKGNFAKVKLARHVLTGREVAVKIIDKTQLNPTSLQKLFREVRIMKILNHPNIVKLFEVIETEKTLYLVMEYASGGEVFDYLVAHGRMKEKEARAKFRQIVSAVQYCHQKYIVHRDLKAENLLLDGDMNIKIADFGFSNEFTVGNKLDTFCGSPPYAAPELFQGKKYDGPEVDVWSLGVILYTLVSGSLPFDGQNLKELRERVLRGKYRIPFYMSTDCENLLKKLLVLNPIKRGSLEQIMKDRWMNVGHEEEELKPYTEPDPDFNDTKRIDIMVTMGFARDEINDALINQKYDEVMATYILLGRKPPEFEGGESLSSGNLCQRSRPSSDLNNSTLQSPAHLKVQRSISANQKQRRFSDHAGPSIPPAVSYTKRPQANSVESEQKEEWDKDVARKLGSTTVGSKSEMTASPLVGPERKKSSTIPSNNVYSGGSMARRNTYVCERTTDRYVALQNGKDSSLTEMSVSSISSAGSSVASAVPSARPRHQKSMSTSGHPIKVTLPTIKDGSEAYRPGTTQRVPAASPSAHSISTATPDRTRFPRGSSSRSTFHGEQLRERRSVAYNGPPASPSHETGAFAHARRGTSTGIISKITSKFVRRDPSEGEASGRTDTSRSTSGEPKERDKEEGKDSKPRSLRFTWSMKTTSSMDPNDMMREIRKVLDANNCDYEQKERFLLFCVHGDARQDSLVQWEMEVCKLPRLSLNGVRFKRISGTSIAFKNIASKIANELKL
CDK17 (human), sequence (Q00537 whole entry, looked up): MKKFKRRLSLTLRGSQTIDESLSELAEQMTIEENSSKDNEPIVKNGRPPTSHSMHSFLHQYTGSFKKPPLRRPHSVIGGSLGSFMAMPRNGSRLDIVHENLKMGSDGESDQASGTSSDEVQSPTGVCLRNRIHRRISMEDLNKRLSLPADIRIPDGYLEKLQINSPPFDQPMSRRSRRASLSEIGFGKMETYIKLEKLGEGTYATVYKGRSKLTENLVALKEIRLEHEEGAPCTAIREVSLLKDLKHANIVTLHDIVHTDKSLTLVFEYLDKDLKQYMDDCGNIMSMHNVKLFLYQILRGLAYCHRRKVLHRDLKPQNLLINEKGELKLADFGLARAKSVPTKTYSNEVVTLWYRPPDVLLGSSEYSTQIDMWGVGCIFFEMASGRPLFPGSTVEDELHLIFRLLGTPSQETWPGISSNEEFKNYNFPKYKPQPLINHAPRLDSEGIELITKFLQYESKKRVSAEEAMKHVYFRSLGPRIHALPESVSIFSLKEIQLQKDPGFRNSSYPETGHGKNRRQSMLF
MAPK10 (human), sequence (P53779 whole entry, looked up): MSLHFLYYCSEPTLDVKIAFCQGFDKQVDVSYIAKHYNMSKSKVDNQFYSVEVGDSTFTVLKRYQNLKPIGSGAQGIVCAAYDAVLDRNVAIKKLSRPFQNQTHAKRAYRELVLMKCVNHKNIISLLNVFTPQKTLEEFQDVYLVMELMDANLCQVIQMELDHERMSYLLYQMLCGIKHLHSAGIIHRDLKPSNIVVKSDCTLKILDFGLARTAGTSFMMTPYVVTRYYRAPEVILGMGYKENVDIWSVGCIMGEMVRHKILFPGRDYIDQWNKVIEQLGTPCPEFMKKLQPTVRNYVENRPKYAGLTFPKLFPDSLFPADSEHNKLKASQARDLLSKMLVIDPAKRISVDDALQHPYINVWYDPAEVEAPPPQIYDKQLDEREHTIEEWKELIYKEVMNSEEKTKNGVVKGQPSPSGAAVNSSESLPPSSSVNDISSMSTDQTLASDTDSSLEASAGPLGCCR
GRK4 (human), sequence (P32298 whole entry, looked up): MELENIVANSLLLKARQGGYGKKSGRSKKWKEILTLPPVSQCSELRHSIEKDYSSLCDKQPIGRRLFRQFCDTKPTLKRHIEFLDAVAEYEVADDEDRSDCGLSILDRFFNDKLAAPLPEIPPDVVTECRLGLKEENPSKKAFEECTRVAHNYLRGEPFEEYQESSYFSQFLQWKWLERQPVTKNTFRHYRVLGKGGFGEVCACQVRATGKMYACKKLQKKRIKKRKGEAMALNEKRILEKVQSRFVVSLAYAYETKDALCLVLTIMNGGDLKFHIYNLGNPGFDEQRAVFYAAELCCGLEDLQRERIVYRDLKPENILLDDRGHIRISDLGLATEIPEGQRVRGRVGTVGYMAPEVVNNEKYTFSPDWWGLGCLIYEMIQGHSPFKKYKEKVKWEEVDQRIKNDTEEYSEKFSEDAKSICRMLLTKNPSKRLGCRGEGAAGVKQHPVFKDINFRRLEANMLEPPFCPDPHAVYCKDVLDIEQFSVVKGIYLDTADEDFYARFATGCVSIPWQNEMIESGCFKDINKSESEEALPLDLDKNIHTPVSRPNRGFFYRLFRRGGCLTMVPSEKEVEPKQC

CNC(=O)c1cc(Oc2ccc(NC(=O)Nc3ccc(Cl)c(C(F)(F)F)c3)cc2)ccn1 showed a kinase still bound, per cent of control (ADCK3 (human)) of 100%, a kinase still bound, per cent of control (AURKC (human)) of 100% and a kinase still bound, per cent of control (BMPR1B (human)) of 98%. It also gave a kinase still bound, per cent of control (BRSK1 (human)) of 92%, a kinase still bound, per cent of control (CAMKK1 (human)) of 89% and a kinase still bound, per cent of control (CDC42BPB (human)) of 100%. For the same molecule, the kinase still bound, per cent of control (CDK17 (human)) was 17%, the kinase still bound, per cent of control (CDK18 (human)) was 70% and the kinase still bound, per cent of control (CDK4 CCND1 (human)) was 65%. For the same molecule, the kinase still bound, per cent of control (CSK (human)) was 70%, the kinase still bound, per cent of control (CaMK1 (human)) was 82% and the kinase still bound, per cent of control (FGFR4 (human)) was 65%. It also gave a kinase still bound, per cent of control (GRK4 (human)) of 100%, a kinase still bound, per cent of control (ICK (human)) of 92% and a kinase still bound, per cent of control (LTK (human)) of 88%. For the same molecule, the kinase still bound, per cent of control (MAP3K2 (human)) was 100%, the kinase still bound, per cent of control (MAP4K1 (human)) was 41% and the kinase still bound, per cent of control (MAPK10 (human)) was 100%. It also gave a kinase still bound, per cent of control (MAPK15 (human)) of 0.85%, a kinase still bound, per cent of control (MAPK3 (human)) of 100% and a kinase still bound, per cent of control (MARK1 (human)) of 100%. For the same molecule, the kinase still bound, per cent of control [1] was 70%, the kinase still bound, per cent of control (MYO3A (human)) was 67% and the kinase still bound, per cent of control (NEK11 (human)) was 100%. For the same molecule, the kinase still bound, per cent of control (NEK7 (human)) was 100%, the kinase still bound, per cent of control (NTRK1 (human)) was 16% and the kinase still bound, per cent of control (PAK6 (human)) was 91%. For the same molecule, the kinase still bound, per cent of control (PKN3 (M.tuberculosis)) was 100%, the kinase still bound, per cent of control (PRKD2 (human)) was 96% and the kinase still bound, per cent of control (PRKG1 (human)) was 95%. The kinase still bound, per cent of control [2] was 0.1%, the kinase still bound, per cent of control (ROCK1 (human)) was 74% and the kinase still bound, per cent of control (RPS6KA1 KD1 (human)) was 82%. The kinase still bound, per cent of control (RPS6KA5 KD1 (human)) was 100%, the kinase still bound, per cent of control (SRPK1 (human)) was 80% and the kinase still bound, per cent of control (TBK1 (human)) was 100%. It also gave a kinase still bound, per cent of control (TLK1 (human)) of 100% and a kinase still bound, per cent of control (TNK1 (human)) of 37%.

C[C@@H](Oc1cc(-c2cnn(C3CCNCC3)c2)cnc1N)c1c(Cl)ccc(F)c1Cl was tested, and the kinase still bound, per cent of control (ADCK3 (human)) was 53%, the kinase still bound, per cent of control (AURKC (human)) was 3.4% and the kinase still bound, per cent of control (BMPR1B (human)) was 61%. It also gave a kinase still bound, per cent of control (BRSK1 (human)) of 48%, a kinase still bound, per cent of control (CAMKK1 (human)) of 60% and a kinase still bound, per cent of control (CDC42BPB (human)) of 62%. The kinase still bound, per cent of control (CDK17 (human)) was 62%, the kinase still bound, per cent of control (CDK18 (human)) was 94% and the kinase still bound, per cent of control (CDK4 CCND1 (human)) was 51%. For the same molecule, the kinase still bound, per cent of control (CaMK1 (human)) was 37%, the kinase still bound, per cent of control (EPHB4 (human)) was 4.8% and the kinase still bound, per cent of control (FGFR4 (human)) was 98%. It also gave a kinase still bound, per cent of control (GRK4 (human)) of 14%, a kinase still bound, per cent of control (LTK (human)) of 0.3% and a kinase still bound, per cent of control (MAP3K2 (human)) of 0.05%. The kinase still bound, per cent of control (MAP4K1 (human)) was 4.6%, the kinase still bound, per cent of control (MAPK10 (human)) was 80% and the kinase still bound, per cent of control (MAPK15 (human)) was 80%. It also gave a kinase still bound, per cent of control (MAPK3 (human)) of 100%, a kinase still bound, per cent of control (MARK1 (human)) of 36% and a kinase still bound, per cent of control (MYO3A (human)) of 66%. The kinase still bound, per cent of control (NEK11 (human)) was 98%, the kinase still bound, per cent of control (NEK7 (human)) was 6.7% and the kinase still bound, per cent of control (NTRK1 (human)) was 0.1%. For the same molecule, the kinase still bound, per cent of control (PAK6 (human)) was 72%, the kinase still bound, per cent of control (PKN3 (M.tuberculosis)) was 30% and the kinase still bound, per cent of control (PRKD2 (human)) was 3.3%. The kinase still bound, per cent of control (PRKG1 (human)) was 100%, the kinase still bound, per cent of control (ROCK1 (human)) was 4% and the kinase still bound, per cent of control (RPS6KA5 KD1 (human)) was 100%. The kinase still bound, per cent of control (SRPK1 (human)) was 26%, the kinase still bound, per cent of control (TBK1 (human)) was 8.7% and the kinase still bound, per cent of control (TEK (human)) was 1%. The kinase still bound, per cent of control (TLK1 (human)) was 61% and the kinase still bound, per cent of control (TNK1 (human)) was 7.1%.

NC(=O)Nc1cc(-c2cccc(F)c2)sc1C(=O)N[C@@H]1CCCNC1 gave a kinase still bound, per cent of control (ADCK3 (human)) of 93%, a kinase still bound, per cent of control (AURKC (human)) of 0.7% and a kinase still bound, per cent of control (BMPR1B (human)) of 0.1%. The kinase still bound, per cent of control (BRSK1 (human)) was 4.9%, the kinase still bound, per cent of control (CAMKK1 (human)) was 7% and the kinase still bound, per cent of control (CDC42BPB (human)) was 74%. The kinase still bound, per cent of control (CDK17 (human)) was 84%, the kinase still bound, per cent of control (CDK18 (human)) was 100% and the kinase still bound, per cent of control (CDK4 CCND1 (human)) was 75%. The kinase still bound, per cent of control (CSK (human)) was 0.05%, the kinase still bound, per cent of control (CaMK1 (human)) was 2% and the kinase still bound, per cent of control (EPHB4 (human)) was 6.4%. For the same molecule, the kinase still bound, per cent of control (FGFR4 (human)) was 13%, the kinase still bound, per cent of control (GRK4 (human)) was 0% and the kinase still bound, per cent of control (ICK (human)) was 100%. For the same molecule, the kinase still bound, per cent of control (LTK (human)) was 0.3%, the kinase still bound, per cent of control (MAP3K2 (human)) was 0% and the kinase still bound, per cent of control (MAPK10 (human)) was 63%. The kinase still bound, per cent of control (MAPK15 (human)) was 19%, the kinase still bound, per cent of control (MAPK3 (human)) was 91% and the kinase still bound, per cent of control (MARK1 (human)) was 2.6%. It also gave a kinase still bound, per cent of control [1] of 0.6%, a kinase still bound, per cent of control (MYO3A (human)) of 4.2% and a kinase still bound, per cent of control (NEK11 (human)) of 100%. It also gave a kinase still bound, per cent of control (NEK7 (human)) of 72%, a kinase still bound, per cent of control (NTRK1 (human)) of 0% and a kinase still bound, per cent of control (PAK6 (human)) of 0.35%. For the same molecule, the kinase still bound, per cent of control (PKN3 (M.tuberculosis)) was 0%, the kinase still bound, per cent of control (PRKD2 (human)) was 0.9% and the kinase still bound, per cent of control (PRKG1 (human)) was 0.8%. For the same molecule, the kinase still bound, per cent of control [2] was 0%, the kinase still bound, per cent of control (RPS6KA1 KD1 (human)) was 11% and the kinase still bound, per cent of control (RPS6KA5 KD1 (human)) was 49%. It also gave a kinase still bound, per cent of control (SRPK1 (human)) of 1.4%, a kinase still bound, per cent of control (TBK1 (human)) of 4.8% and a kinase still bound, per cent of control (TEK (human)) of 17%. The kinase still bound, per cent of control (TLK1 (human)) was 0.9% and the kinase still bound, per cent of control (TNK1 (human)) was 1.4%.
